Measured values from ChEMBL document CHEMBL5316299, “Discovery of Novel Drug-like PHGDH Inhibitors to Disrupt Serine Biosynthesis for Cancer Therapy” (J Med Chem, 2023).

T1: D-3-phosphoglycerate dehydrogenase (Homo sapiens, UniProt O43175)
T1 sequence (O43175 whole entry): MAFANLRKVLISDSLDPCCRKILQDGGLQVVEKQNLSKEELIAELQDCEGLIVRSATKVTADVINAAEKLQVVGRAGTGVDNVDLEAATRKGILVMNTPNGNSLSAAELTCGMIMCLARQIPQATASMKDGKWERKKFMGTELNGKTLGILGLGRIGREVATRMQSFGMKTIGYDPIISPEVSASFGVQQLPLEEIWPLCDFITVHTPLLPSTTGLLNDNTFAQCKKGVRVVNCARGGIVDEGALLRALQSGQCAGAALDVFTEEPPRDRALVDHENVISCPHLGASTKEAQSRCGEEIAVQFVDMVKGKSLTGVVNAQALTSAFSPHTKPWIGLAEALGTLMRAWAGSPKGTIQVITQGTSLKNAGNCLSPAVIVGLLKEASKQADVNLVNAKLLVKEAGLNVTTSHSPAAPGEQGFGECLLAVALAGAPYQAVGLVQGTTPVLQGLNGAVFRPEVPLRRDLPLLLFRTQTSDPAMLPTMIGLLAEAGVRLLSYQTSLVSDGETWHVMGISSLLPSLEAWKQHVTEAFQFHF


Assays:
[1] = target: T1, D-3-phosphoglycerate dehydrogenase; test: Inhibition of PHGDH (unknown origin) preincubated for 30 mins followed by substrate addition and measured after 5 mins
MDA-MB-468 = test: Antiproliferative activity against human MDA-MB-468 cells expressing PHGDH assessed as reduction in cell viability measured for 72 hrs by CCK-8 assay; format: functional, cell-based; conditions: MDA-MB-468, 72 h
MCF-10A = test: Antiproliferative activity against human MCF-10A cells assessed as reduction in cell viability measured for 72 hrs by CCK-8 assay; format: functional, cell-based
[2] = Microsomal stability in human liver microsomes assessed as half life measured upto 60 mins by HPLC-MS/MS analysis; format: ADME, Microsome
[3] = Microsomal stability in rat liver microsomes assessed as half life measured upto 60 mins by HPLC-MS/MS analysis; format: ADME, Microsome
[4] = Microsomal stability in mouse liver microsomes assessed as half life measured upto 60 mins by HPLC-MS/MS analysis; format: ADME, Microsome
[5] = Microsomal stability in human liver microsomes assessed as intrinsic clearance measured upto 60 mins by HPLC-MS/MS analysis; format: ADME, Microsome; conditions: 1 h
[6] = Microsomal stability in rat liver microsomes assessed as intrinsic clearance measured upto 60 mins by HPLC-MS/MS analysis; format: ADME, Microsome; conditions: 1 h
[7] = Microsomal stability in mouse liver microsomes assessed as intrinsic clearance measured upto 60 mins by HPLC-MS/MS analysis; format: ADME, Microsome; conditions: 1 h
BT-20 = test: Antiproliferative activity against human BT-20 cells expressing PHGDH assessed as reduction in cell viability measured for 72 hrs by CCK-8 assay; format: functional, cell-based; conditions: BT-20, 72 h
PC-9 = test: Antiproliferative activity against human PC-9 cells expressing PHGDH assessed as reduction in cell viability measured for 72 hrs by CCK-8 assay; format: functional, cell-based; conditions: PC-9, 72 h
NCI-H1975 = test: Antiproliferative activity against human NCI-H1975 cells expressing PHGDH assessed as reduction in cell viability measured for 72 hrs by CCK-8 assay; format: functional, cell-based; conditions: NCI-H1975, 72 h
HCT-116 = test: Antiproliferative activity against human HCT-116 cells expressing PHGDH assessed as reduction in cell viability measured for 72 hrs by CCK-8 assay; format: functional, cell-based; conditions: HCT-116, 72 h
HCC827 = test: Antiproliferative activity against human HCC827 cells expressing PHGDH assessed as reduction in cell viability measured for 72 hrs by CCK-8 assay; format: functional, cell-based; conditions: HCC827, 72 h
[8] = target: T1, D-3-phosphoglycerate dehydrogenase; test: Inhibition of wild type PHGDH (unknown origin) preincubated for 30 mins followed by substrate addition and measured after 5 mins
[9] = target: D-3-phosphoglycerate dehydrogenase (Homo sapiens, UniProt O43175, D175A); test: Inhibition of PHGDH D175A mutant (unknown origin) preincubated for 30 mins followed by substrate addition and measured after 5 mins
Sequence of D-3-phosphoglycerate dehydrogenase (Homo sapiens, UniProt O43175, D175A) (O43175 2-533 D175A limits assumed): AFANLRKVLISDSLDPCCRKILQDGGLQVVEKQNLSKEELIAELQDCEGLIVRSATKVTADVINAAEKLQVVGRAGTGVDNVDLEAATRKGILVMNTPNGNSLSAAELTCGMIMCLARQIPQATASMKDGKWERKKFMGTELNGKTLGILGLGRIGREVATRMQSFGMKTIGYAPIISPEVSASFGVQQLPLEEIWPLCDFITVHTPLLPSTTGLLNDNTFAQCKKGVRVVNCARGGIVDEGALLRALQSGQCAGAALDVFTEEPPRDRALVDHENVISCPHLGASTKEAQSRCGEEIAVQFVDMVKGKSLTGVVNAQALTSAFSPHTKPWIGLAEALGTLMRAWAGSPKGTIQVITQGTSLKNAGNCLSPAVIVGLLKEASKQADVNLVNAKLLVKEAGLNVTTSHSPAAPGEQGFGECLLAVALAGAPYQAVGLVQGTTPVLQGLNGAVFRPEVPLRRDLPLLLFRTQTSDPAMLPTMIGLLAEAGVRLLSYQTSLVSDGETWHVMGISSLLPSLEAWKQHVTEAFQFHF

[10] = substrate: CC(=O)c1cccc(NS(=O)(=O)c2ccc(C(=O)Nc3nc(-c4cccc(F)c4)cs3)cc2)c1; conditions: Homo sapiens; dose 25.0 µM, time 35.0 min
[11] = substrate: CC(=O)c1cccc(NS(=O)(=O)c2ccc(C(=O)Nc3nc(-c4cccc(F)c4)cs3)cc2)c1; conditions: Homo sapiens; dose 12.5 µM, time 35.0 min
[12] = substrate: CC(=O)c1cccc(NS(=O)(=O)c2ccc(C(=O)Nc3nc(-c4cccc(F)c4)cs3)cc2)c1; conditions: Homo sapiens; dose 6.3 µM, time 35.0 min
[13] = substrate: CC(=O)c1cccc(NS(=O)(=O)c2ccc(C(=O)Nc3nc(-c4cccc(F)c4)cs3)cc2)c1; conditions: Homo sapiens; dose 3.1 µM, time 35.0 min
[14] = substrate: CC(=O)c1cccc(NS(=O)(=O)c2ccc(C(=O)Nc3nc(-c4cccc(F)c4)cs3)cc2)c1; conditions: Homo sapiens; dose 25.0 µM, time 35.0 min; remark: listed apart in the source
[15] = substrate: CC(=O)c1cccc(NS(=O)(=O)c2ccc(C(=O)Nc3nc(-c4cccc(F)c4)cs3)cc2)c1; conditions: Homo sapiens; dose 12.5 µM, time 35.0 min; remark: listed apart in the source
[16] = substrate: CC(=O)c1cccc(NS(=O)(=O)c2ccc(C(=O)Nc3nc(-c4cccc(F)c4)cs3)cc2)c1; conditions: Homo sapiens; dose 6.3 µM, time 35.0 min; remark: listed apart in the source

Molecule | IC50 [1] [µM] | IC50 (MDA-MB-468) [µM] | IC50 (MCF-10A) [µM] | also measured
O=C(Nc1nc(-c2ccccc2)cs1)c1ccc(S(=O)(=O)NCCN2CCOCC2)cc1 | 10.8 | – | – | –
CC(=O)c1cccc(NS(=O)(=O)c2ccc(C(=O)Nc3nc(-c4ccccc4F)cs3)cc2)c1 | 3.8 | 65.4 | 62.9 | –
O=C(Nc1nc(-c2ccccc2)cs1)c1ccc(S(=O)(=O)Nc2ccccc2)cc1 | 6.5 | 11.6 | > 100 | –
CC(=O)c1cccc(NS(=O)(=O)c2ccc(C(=O)Nc3nc(-c4ccc(F)cc4F)cs3)cc2)c1 | 6.7 | – | – | –
COC(=O)CS(=O)(=O)c1ccc([C@@H](CO)NC(=O)c2cc3c(Cl)cc(C)cc3n2C)cc1 | 0.162 | 27.9 | > 100 | –
O=C(O)CNS(=O)(=O)c1ccc(C(=O)Nc2nc(-c3ccccc3)cs2)cc1 | 15.8 | – | – | –
CN1CCN(CCNS(=O)(=O)c2ccc(C(=O)Nc3nc(-c4ccccc4)cs3)cc2)CC1 | 11.4 | – | – | –
O=C(Nc1nc(-c2ccccc2)cs1)c1ccc(S(=O)(=O)N2CCC(CCO)CC2)cc1 | 12.2 | – | – | –
O=C(O)Cc1cccc(NS(=O)(=O)c2ccc(C(=O)Nc3nc(-c4ccccc4)cs3)cc2)c1 | 7.89 | > 100 | > 100 | –
CC(=O)c1cccc(NS(=O)(=O)c2ccc(C(=O)Nc3cc(-c4ccccc4)cs3)cc2)c1 | 12.9 | – | – | –
CC(=O)N1CCC(NS(=O)(=O)c2ccc(C(=O)Nc3nc(-c4ccccc4)cs3)cc2)CC1 | 6.81 | 72.3 | > 100 | –
CC(=O)c1cccc(NS(=O)(=O)c2ccc(C(=O)Nc3nc(-c4cccc(C)c4)cs3)cc2)c1 | 2.4 | 3 | 100 | half-life [2]: 1 min; half-life [3]: 0.9 min; half-life [4]: 2.5 min; CLH [5]: 1589.7 mL/min/g; CLH [6]: 2378.4 mL/min/g; CLH [7]: 835.6 mL/min/g
O=C(Nc1nc(-c2ccccc2)cs1)c1ccc(S(=O)(=O)Nc2cccc(N3CCOCC3)c2)cc1 | 7.04 | > 100 | > 100 | –
O=C(Nc1nc(-c2ccccc2)cs1)c1ccc(S(=O)(=O)N2CCC(C(=O)O)CC2)cc1 | 13 | – | – | –
CC(=O)c1cccc(NS(=O)(=O)c2ccc(C(=O)Nc3nc(-c4cccc(O)c4)cs3)cc2)c1 | – | 69.3 | – | IC50 (BT-20): 69.3 µM; IC50 (PC-9): > 100 µM; IC50 (NCI-H1975): 89.7 µM; IC50 (HCT-116): 84.7 µM; IC50 (HCC827): 55.7 µM
CCOC(=O)c1sc(NC(=O)c2ccco2)c(SC#N)c1C | – | 20.9 | 57.2 | –
CC(=O)c1cccc(NS(=O)(=O)c2ccc(C(=O)Nc3nc(-c4ccc(F)c(F)c4)cs3)cc2)c1 | 17.2 | – | – | –

Molecule | IC50 [1] [µM] | IC50 (MDA-MB-468) [µM] | IC50 (MCF-10A) [µM] | also measured
COc1ccccc1-c1csc(NC(=O)c2ccc(S(=O)(=O)Nc3cccc(C(C)=O)c3)cc2)n1 | 2.2 | 5.5 | > 100 | half-life [2]: 26 min; half-life [3]: 2.5 min; half-life [4]: 13.7 min; CLH [5]: 82 mL/min/g; CLH [6]: 838.8 mL/min/g; CLH [7]: 153 mL/min/g
Cc1cc(C)nc(NS(=O)(=O)c2ccc(C(=O)Nc3nc(-c4ccccc4)cs3)cc2)n1 | 3.19 | 30.1 | 86.5 | –
O=C(Nc1nc(-c2ccccc2)cs1)c1ccc(S(=O)(=O)Cl)cc1 | 18.5 | – | – | –
CC(=O)c1cccc(NS(=O)(=O)c2ccc(C(=O)Nc3nc(-c4ccc(F)cc4)cs3)cc2)c1 | 2.6 | 11.7 | 100 | –
COc1cccc(-c2csc(NC(=O)c3ccc(S(=O)(=O)Nc4cccc(C(C)=O)c4)cc3)n2)c1 | 4.8 | 4.8 | 100 | half-life [2]: 0.85 min; half-life [3]: 0.84 min; half-life [4]: 0.85 min; CLH [5]: 2485.8 mL/min/g; CLH [6]: 2500.2 mL/min/g; CLH [7]: 2471.9 mL/min/g
COCCNS(=O)(=O)c1ccc(C(=O)Nc2nc(-c3ccccc3)cs2)cc1 | 17.8 | – | – | –
O=C(O)c1cccc(NS(=O)(=O)c2ccc(C(=O)Nc3nc(-c4ccccc4)cs3)cc2)c1 | 3.59 | > 100 | > 100 | –
O=C(Nc1nc(-c2ccccc2)cs1)c1ccc(S(=O)(=O)Nc2cccc(CO)c2)cc1 | 7.74 | 10.1 | > 100 | –
CNC(=O)c1cccc(NS(=O)(=O)c2ccc(C(=O)Nc3nc(-c4ccccc4)cs3)cc2)c1 | 4.96 | 15 | > 100 | –
CN(C)CCNS(=O)(=O)c1ccc(C(=O)Nc2nc(-c3ccccc3)cs2)cc1 | 15.7 | – | – | –
Cc1cc(Cl)c2cc(C(=O)N[C@H](CO)c3ccc(S(=O)(=O)CC(=O)O)cc3)n(C)c2c1 | 0.106 | > 100 | > 100 | IC50 [8]: 0.1 µM; IC50 [9]: > 3 µM
CN1CCN(c2cccc(NS(=O)(=O)c3ccc(C(=O)Nc4nc(-c5ccccc5)cs4)cc3)c2)CC1 | 6.16 | 9.7 | 25.5 | –
CC(=O)c1cccc(NS(=O)(=O)c2ccc(C(=O)Nc3nc(-c4ccccc4)cs3)cc2)c1 | 5.33 | 8.4 | > 100 | –
O=C(Nc1nc(-c2ccccc2)cs1)c1ccc(S(=O)(=O)O)cc1 | 12.6 | > 100 | – | –
O=C(Nc1nc(-c2ccccc2)cs1)c1ccc(S(=O)(=O)Nc2cccc(CCO)c2)cc1 | 7.49 | 8.1 | 93.4 | –
D-3-phosphoglycerate dehydrogenase (Homo sapiens), O43175 (protein) MAFANLRKVLISDSLDPCCRKILQDGGLQVVEKQNLSKEELIAELQDCEGLIVRSATKVTADVINAAEKLQVVGRAGTGVDNVDLEAATRKGILVMNTPNGNSLSAAELTCGMIMCLARQIPQATASMKDGKWERKKFMGTELNGKTLGILGLGRIGREVATRMQSFGMKTIGYDPIISPEVSASFGVQQLPLEEIWPLCDFITVHTPLLPSTTGLLNDNTFAQCKKGVRVVNCARGGIVDEGALLRALQSGQCAGAALDVFTEEPPRDRALVDHENVISCPHLGASTKEAQSRCGEEIAVQFVDMVKGKSLTGVVNAQALTSAFSPHTKPWIGLAEALGTLMRAWAGSPKGTIQVITQGTSLKNAGNCLSPAVIVGLLKEASKQADVNLVNAKLLVKEAGLNVTTSHSPAAPGEQGFGECLLAVALAGAPYQAVGLVQGTTPVLQGLNGAVFRPEVPLRRDLPLLLFRTQTSDPAMLPTMIGLLAEAGVRLLSYQTSLVSDGETWHVMGISSLLPSLEAWKQHVTEAFQFHF | – | – | – | Km [10]: 72.9 µM; Km [11]: 64 µM; Km [12]: 51.6 µM; Km [13]: 33.4 µM; Km [14]: 448 µM; Km [15]: 495 µM; Km [16]: 510 µM
